The values below come from ChEMBL document CHEMBL3045655, “Use of structure-based virtual screening in the investigation of novel human sialidase inhibitors” (Med Chem Res, 2010).

One experiment deals with T1, Sialidase-4 (Homo sapiens, UniProt Q8WWR8).
T1 sequence (Q8WWR8 whole entry): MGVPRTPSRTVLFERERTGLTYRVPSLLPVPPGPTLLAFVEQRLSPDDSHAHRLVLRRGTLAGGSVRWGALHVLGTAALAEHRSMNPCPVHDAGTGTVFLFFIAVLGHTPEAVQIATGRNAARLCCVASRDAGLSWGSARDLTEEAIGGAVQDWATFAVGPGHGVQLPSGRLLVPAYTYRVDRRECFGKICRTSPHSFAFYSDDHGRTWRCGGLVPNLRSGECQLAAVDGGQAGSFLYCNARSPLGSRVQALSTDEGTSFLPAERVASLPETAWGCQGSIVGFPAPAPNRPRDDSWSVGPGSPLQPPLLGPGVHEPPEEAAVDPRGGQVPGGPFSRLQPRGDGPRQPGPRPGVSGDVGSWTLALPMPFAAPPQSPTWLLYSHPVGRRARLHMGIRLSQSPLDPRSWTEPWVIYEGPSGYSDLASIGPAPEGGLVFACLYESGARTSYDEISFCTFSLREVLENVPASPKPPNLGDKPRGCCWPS
The experiment in a line: Inhibition of Homo sapiens (human) NEU4 expressed in HEK293 cells using 4MU-NeuAc as substrate after 10 to 30 min by fluorometric analysis. It is filed as cell-based.

Experiment [1] deals with T2, Sialidase-3 (Homo sapiens) (UniProt Q9UQ49).
T2 sequence (whole entry): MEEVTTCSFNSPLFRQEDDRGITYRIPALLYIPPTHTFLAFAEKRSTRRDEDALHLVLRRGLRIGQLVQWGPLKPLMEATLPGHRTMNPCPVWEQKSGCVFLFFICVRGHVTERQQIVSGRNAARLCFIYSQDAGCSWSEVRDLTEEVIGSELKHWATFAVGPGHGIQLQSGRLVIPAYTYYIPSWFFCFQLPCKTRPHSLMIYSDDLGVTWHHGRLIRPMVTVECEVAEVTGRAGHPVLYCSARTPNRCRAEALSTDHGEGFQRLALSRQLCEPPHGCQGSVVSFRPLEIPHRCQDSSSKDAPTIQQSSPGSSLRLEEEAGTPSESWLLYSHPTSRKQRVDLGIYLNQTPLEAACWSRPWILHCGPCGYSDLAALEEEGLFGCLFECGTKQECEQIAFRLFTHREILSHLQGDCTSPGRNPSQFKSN
The experiment in a line: Inhibition of Homo sapiens (human) NEU3 expressed in HEK293 cells using mixed ganglioside as substrate at 1 mM after 10 to 30 min by fluorometric analysis. It is filed as cell-based.

Experiment [2] has as its target Sialidase-1 (Homo sapiens) (UniProt Q99519). Briefly: Inhibition of Homo sapiens (human) NEU1 expressed in HEK293 cells using 4MU-NeuAc as substrate at 1 mM after 10 to 30 min by fluorometric analysis. Type of experiment: cell-based.
A further experiment has as its target T3, Sialidase-3 (Homo sapiens, UniProt Q9UQ49).
T3 sequence (Q9UQ49 whole entry): T2 sequence (whole entry)
Briefly: Inhibition of Homo sapiens (human) NEU3 expressed in HEK293 cells using mixed ganglioside as substrate after 10 to 30 min by fluorometric analysis. Type of experiment: cell-based.

The target of experiment [3] is Sialidase-2 (Homo sapiens) (UniProt Q9Y3R4). Conditions: HEK293, 1 mM.
Sequence of Sialidase-2 (Homo sapiens) (Q9Y3R4 whole entry): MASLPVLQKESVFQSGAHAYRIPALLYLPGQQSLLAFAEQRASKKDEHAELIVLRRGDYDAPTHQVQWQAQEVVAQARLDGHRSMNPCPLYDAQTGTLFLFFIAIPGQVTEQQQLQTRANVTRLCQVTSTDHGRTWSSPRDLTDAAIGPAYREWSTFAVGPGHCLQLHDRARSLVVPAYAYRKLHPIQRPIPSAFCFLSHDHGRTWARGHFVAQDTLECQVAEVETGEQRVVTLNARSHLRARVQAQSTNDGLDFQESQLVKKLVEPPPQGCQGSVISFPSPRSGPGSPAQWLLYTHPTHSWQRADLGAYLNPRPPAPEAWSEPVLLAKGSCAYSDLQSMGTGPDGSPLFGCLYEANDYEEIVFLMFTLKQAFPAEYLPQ
Description: Inhibition of Homo sapiens (human) NEU2 expressed in HEK293 cells using 4MU-NeuAc as substrate at 1 mM after 10 to 30 min by fluorometric analysis
For experiment [4], the target named is T4, Sialidase-4 (Homo sapiens) (UniProt Q8WWR8).
T4 sequence (whole entry): T1 sequence (Q8WWR8 whole entry)
The experiment in a line: Inhibition of Homo sapiens (human) NEU4 expressed in HEK293 cells using 4MU-NeuAc as substrate at 1 mM after 10 to 30 min by fluorometric analysis.

The source made the active and inactive calls. No cut-off for these calls is given here.

A word on the IC50: it is the concentration that inhibits the measured activity by half. Lower therefore signals higher potency. The inhibition is the relative decrease from the control value, in per cent. As for `O=C(O)c1oc(C(=O)O)c(OCc2ccccc2)c1OCc1ccccc1`, the IC50 at Sialidase-4 came to 670 µM; on Sialidase-3, 920 µM. Moreover, the inhibition came out at 56% in experiment [1], 7% in experiment [2], 40% in experiment [3] and 56% in experiment [4].
Consider `CC(=O)N[C@H]1[C@H]([C@@H](O)[C@@H](O)CO)OC(C(=O)O)=C[C@@H]1O`, for which, on Sialidase-3, the IC50 turned out to be 60 µM.
With `CC(=O)Nc1cc(F)c(C(=O)O)cc1NC(=O)c1ccc(-c2ccccc2)cc1`, the IC50 at Sialidase-4 and on Sialidase-3 was more than 5000 µM each time. For the same compound, the inhibition entry in experiment [2] was “inactive”.
